Here are results for 5 compounds from PMC5515859, “Metabolism of F18, a Derivative of Calanolide A, in Human Liver Microsomes and Cytosol” (Frontiers in Pharmacology, 2017).

Structures are written as SMILES.

Series [1] relates to CYP2C19. The conditions noted are these: cited from earlier work.
Series [2] deals with CYP2C9. The arrangement: method as in unpublished data. The conditions noted are these: previous study; ref unpublished data; cited from earlier work.
For series [3], the system named is HIV-1. The following applies: ref Xue et al., 2010, cited from earlier work.
The target in series [4] is T1, recombinant CYP3A4 (Homo sapiens, UniProt P08684).
T1 construct: purchased BD Gentest (Woburn, MA, USA)
T1 sequence (P08684 whole entry): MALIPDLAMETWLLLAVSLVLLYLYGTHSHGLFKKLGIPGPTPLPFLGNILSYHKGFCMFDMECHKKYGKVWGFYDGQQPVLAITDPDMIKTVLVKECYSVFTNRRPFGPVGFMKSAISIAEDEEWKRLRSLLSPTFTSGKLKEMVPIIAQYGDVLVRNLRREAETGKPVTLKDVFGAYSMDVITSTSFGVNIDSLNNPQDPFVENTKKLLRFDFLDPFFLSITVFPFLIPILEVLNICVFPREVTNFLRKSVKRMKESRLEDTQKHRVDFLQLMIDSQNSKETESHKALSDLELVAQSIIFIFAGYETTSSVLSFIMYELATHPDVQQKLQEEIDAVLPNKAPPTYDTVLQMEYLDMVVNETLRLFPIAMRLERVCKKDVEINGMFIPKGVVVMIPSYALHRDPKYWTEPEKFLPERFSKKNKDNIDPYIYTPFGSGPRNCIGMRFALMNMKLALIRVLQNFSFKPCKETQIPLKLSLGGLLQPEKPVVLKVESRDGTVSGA
Nature of the series: Metabolism of F18 by cDNA-expressed CYP3A4. The format is in vitro ADME. The following applies: F18 10 μM, 50 pmol/mL enzyme, 1 h; among 14 CYP isoforms. As to the method:
To further verify the roles of CYPs and FMOs in the metabolism of F18 in humans, F18 (10 μM) was incubated individually with 14 cDNA-expressed human CYP isozymes (50-pmol/mL CYP1A1, CYP1A2, CYP2A6, CYP2B6, CYP2C8, CYP2C9, CYP2C19, CYP2D6, CYP2E1, CYP2J2, CYP3A4, CYP4F2, CYP4F3, and CYP4A11) and three cDNA-expressed FMO enzymes (50-pmol/mL FMO1, FMO3, and FMO5). The incubation conditions were similar to those used for HLMs (described above), with the exception of the incubating time […]. Samples incubated without NADPH were used as the negative control.

Series [5] can be described thus: Pharmacokinetics in rats after oral administration of F18. The conditions noted are these: rat blood, oral F18 50 mg/kg, mean ± SD, n = 5. It counts as in vivo, Sprague-Dawley rats. As to the method: To investigate the pharmacokinetic characteristics of F18 and its major metabolites, five rats were intragastrically administered F18 at a dose of 50 mg/kg. Blood samples were collected in heparinized ice-bath tubes from the suborbital veniplex at 0, 0.25, 0.5, 1, 2, 4, 6, 8, 12, 16, and 24 h postdose. The blood concentrations of F18 and its major metabolites were determined by LC-MS/MS and their pharmacokinetic parameters were calculated through non-compartmental analysis using WinNonlin Version 6.1 (Pharsight, Mountain View, CA, USA).
For the blood samples, F18, M1, M3-1, and M3-2 were simultaneously quantified using the following elution gradient: Solvent B was maintained at 15% for 2 min, increased to 85% in 1 min, maintained at 85% for 5 min, decreased to 15% in 0.5 min and maintained at 15% for 4.5 min. Detection was also performed using a Finnigan TSQ Quantum MS instrument with an electrospray ionization probe operated in the positive mode.
Calibration curves for F18 and its metabolites were fitted via linearly weighted (1/x^2) least-squares regression. The correlation coefficient values of F18 and its metabolites in the incubations were >0.99 for the range 10–5,000 nM; the LOQ was 10 nM with a signal-to-noise ratio >10:1; the accuracies were 90–113% and the precisions (RSD) were <10.5%. In the blood samples, the correlation coefficient values for F18, M1, M3-1, and M3-2 were >0.99 for the range 5–2,000 nM; the LOQ was 5 nM with the signal-to-noise ratio >10:1; the accuracies were 91–112% and the precisions (RSD) were <9.6%. In addition, no interference was found in the retention time of each analyte in both the incubated samples and the blood samples.

The test system of series [6] is CYPs and FMOs in HLMs. The series can be described thus: Microsomal incubations of F18 with chemical inhibitors of CYPs or thermal inactivation of FMOs. As to the method: (§1) The contributions of CYPs and FMOs to the metabolism of F18 were investigated by chemical inhibition and thermal inactivation, respectively. […] Briefly, F18 (10 μM) was incubated with HLMs (0.5 mg protein/mL) and an NADPH-generating system in the absence and presence of CYP inhibitors at 37°C for 30 min, and the reaction was terminated with two volumes of ice-cold acetonitrile. […] In brief, HLMs (0.5 mg protein/mL) were preheated at 50°C for 5 min and then immersed in an ice-cold bath. After the addition of F18 (10 μM) and equilibration for 3 min at 37°C, the reaction was started by the addition of the NADPH-generating system. After a 30-min incubation, the reactions were terminated as described above. […] The formation of the major metabolites M1, M2-9, M3-1, M3-2, M5-2, M5-3, M5-4, and M5-5 was analyzed by LC-MS/MS.
(§2) The amounts of F18, M1, M2-9, M3-1, M3-2, M5-2, M5-3, M5-4, and M5-5 in the incubations were simultaneously quantified with the LC-MS/MS system. […] The sheath gas, auxiliary gas, spray voltage and tube lens parameters were the same as those for the metabolic profiling studies.

The test system of series [7] is Y181C single mutation of HIV-1. The following applies: ref Xue et al., 2010; cited from earlier work.
The test system of series [8] is VSV-G/HIV-1 viruses. The series can be described thus: microbe, parasite or virus in culture. It counts as cell-based. The conditions noted are these: Human immunodeficiency virus 1, HEK-293T, 48 h, read-out: IC50, inhibition of HIV-1 replication.
Series [9] deals with CYP2C19. The arrangement: method as in unpublished data. The following applies: previous study; ref unpublished data; cited from earlier work.
Series [10] has as its system CYP3A4. Set-up: method as in unpublished data. The following applies: previous study; ref unpublished data; cited from earlier work.
In series [11] the test system is CYP1A2. Set-up: method as in unpublished data. The following applies: previous study; ref unpublished data; cited from earlier work.
The subject of series [12] is CYP3A4/5. The conditions noted are these: cited from earlier work.
Series [13] relates to CYP3A4. The series can be described thus: Microsomal incubations of F18 with chemical inhibitors of CYPs or thermal inactivation of FMOs. The conditions noted are these: human, human liver microsomes. On the procedure:
as §1, §2
(In general: Liver microsomes are a subcellular fraction often used to study metabolism.)

On the set-up of series [14]: method as in Creagh et al., 2001; Eiznhamer et al., 2002. The following applies: ref Creagh et al., 2001; Eiznhamer et al., 2002; cited from earlier work.
Where [15] appears, read: HLMs preheated at 50°C for 5 min, F18 10 μM.

Regarding `C=C(C)[C@@H]1CCC2=CC(=O)C[C@@H](C)[C@]2(C)C1` [nootkatone], in series [1], the Ki is 500 nM.

Take `CCCc1cc(=O)oc2c3c(c4c(c12)OC(C)(C)C=C4)OC(CCl)CC3=O` (stereo not drawn) [Metabolite F18, 10-Chloromethyl-11-demethyl-12-oxo-calanolide A]: the “Effect on CYP2C9” value in [2] is “potent inhibitory effects”. In [3], the “therapeutic (index)” value is listed as 1417. Further, in series [3] (read-out: half-maximal effective concentration (EC50)), the EC50 is 7.4 nM. For the same compound, the “Metabolic activity of recombinant CYP3A4 for the formation of M1, M2-9, M5-2, M5-3, M5-4, and M5-5” value in [4] is recorded as “highest metabolic activity”. In series [5] (Sprague-Dawley), the Cmax amounted to 443 ± 107 nM, the Tmax came out at 3.3 ± 2.2 h and the half-life was 5.3 ± 2.8 h. In addition, the MRT last in series [5] (Sprague-Dawley, read-out: MRT0−t) worked out at 7.8 ± 1 h. Moreover, the MRT inf in series [5] (Sprague-Dawley, read-out: MRT0−∞) was found to be 10 ± 2.4 h. Besides, the “AUC0−∞” value in series [5] (50 mg/kg) was 5,166 h^*nM. Besides, in series [6] (setting [15]), the “Formation of M3-1 after thermal inactivation of FMOs” value was “significantly inhibited” and the “Reduction in M1 formation by thermal inactivation of FMOs” value came out at 64%. Moreover, in [7], the “Potency against Y181C mutant HIV-1 (in words)” value is given as “extremely high potency”. Further, the IC50 in [8] is 190 nM. Besides, the “Effect on CYP2C19” value in series [9] is reported as “potent inhibitory effects”. In addition, in series [10], the “Effect on CYP3A4” value is on record as “activation-inducing effect”. The “Effect on CYP1A2” value in series [11] was “potent inhibitory effects”.

With `Cc1ncc2n1-c1ccc(Cl)cc1C(c1ccccc1F)=NC2` [midazolam], the Km in [12] is 1 to 14 µM. For the same compound, the “Metabolism of probe substrate after thermal inactivation of HLMs” value in series [6] is “unchanged”.

Take `CC(=O)N1CCN(c2ccc(OCC3COC(Cn4ccnc4)(c4ccc(Cl)cc4Cl)O3)cc2)CC1` (stereo not drawn) [ketoconazole]: in series [12], the Ki is 3.7 to 180 nM. The inhibition at 30 min, 1 μM in series [13] is above 80%; in [13] (probe F18 (10 μM), formation of metabolite M1), 20 to 30%.

With `CCCc1cc(=O)oc2c3c(c4c(c12)OC(C)(C)C=C4)O[C@H](C)[C@@H](C)[C@@H]3O` [calanolide A, Calanolide A], the “Tolerability in Phase I studies” value in series [14] is given as “well tolerated”.

By Ki is commonly meant the dissociation constant of the complex between target and ligand, obtained from inhibition or displacement. The Cmax is the highest concentration seen after dosing. As usually defined, the Tmax is the time from dosing to the highest level. By half-life is commonly meant the time in which the quantity being followed falls by half. The low end stands for rapid decline, the high end for slow decline. The IC50 is the point on the concentration scale where inhibition reaches its midpoint. In general, Km refers to the concentration of substrate that gives half-maximal velocity. The term inhibition denotes the drop in the measured response relative to a control, in per cent.
